Assay results as given in patent US20170007561A1, “CONTEMPORANEOUS, HETEROGENEOUSLY-ORIENTED, MULTI-TARGETED THERAPEUTIC MODIFICATION AND/OR MODULATION OF DISEASE BY ADMINISTRATION OF SULFUR-CONTAINING, AMINO ACID-SPECIFIC SMALL MOLECULES” (BioNumerik Pharmaceuticals, Inc., priority 2014, published 2017).

Legend:
[1] = molecular target: T1, Trx (E13K, D16K, E95K, E103K) (Homo sapiens, UniProt P10599, D16K/E103K/E13K/E95K); assay: X-ray crystallography of Tavocept-derived mesna adduct on Trx; format: binding; details: Tavocept 40 mM
T1 construct: 6xHis with TEV site (N, cleaved yes); made in house; host or cells: E. coli BL21(DE3)
T1 sequence (P10599 1-105 E13K/D16K/E95K/E103K): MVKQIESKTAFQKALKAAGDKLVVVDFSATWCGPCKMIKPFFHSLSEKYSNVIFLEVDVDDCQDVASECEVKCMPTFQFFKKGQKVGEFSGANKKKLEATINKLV
Procedure: Adduct was prepared as described above with some modifications designed to increase the likelihood of success in crystallization of the protein. […] This reaction was incubated for 1 hour at 30° C. followed by overnight incubation at 4° C. […] Aliquots of this solution were analyzed by ESI LC-MS to confirm the presence of adduct(s) prior to initiation of crystallization experiments.
These initial broad screens produced crystals under a wide range of conditions (data not shown) and the screens used included: (i) PEGION, CRYSTALS HT, and PEGRX (Hampton Research) and (ii) JCSG and BASIC (JENA Biosciences). Multiple rounds of optimization were completed and included fine screens, varying the protein concentration and varying the protein to reservoir ratios to obtain diffraction quality crystals. In the Trx pH 9.0/8.5 structure (adduct formed at pH 9.0, crystals grown at pH 8.5), the best crystals were obtained in 20% ethanol, 0.1 M Tris (at 60 mg/mL Trx protein) and diffracted to 2.5 Å (C2 space group). In Trx pH 9.0/7.0 (adduct formed at pH 9.0, crystals grown at pH 7.0), the best crystals were obtained in 20% PEG3350, 0.2 M KCl (60 mg/mL Trx protein) and diffracted to 2.8 Å (C2 space group). In Trx pH 7.0/7.0 (adduct formed at pH 7.0, crystals grown at pH 7.0), the best crystals were obtained in 28% PEG3350, 0.2M KCl (160 mg/mL Trx protein) and diffracted to 1.85 Å resolution (P21 space group).
The solution obtained was consistent with four molecules in the crystal asymmetric unit. […] Molecules C and D were substantially rebuilt and the Tavocept-derived mesna adduct added after protein rebuilding was complete. The structure solution was supported by contiguous electron density for the entire chain trace of each molecule, landmark side chain density features matching the amino acid sequence including cysteines, absence of phi-psi violations, and final R/Rfree values in the normal range. […] For the Trx pH 9.0/8.5 structure, residual density observed near Cys69 of molecule A was modeled as a Tavocept-derived mesna adduct in a dual conformation. […]

[2] = molecular target: RNR subunit 1 (Homo sapiens, UniProt P23921); assay: Whole protein Mass Spectroscopy of RNR1; format: binding
RNR subunit 1, sequence (P23921 whole entry): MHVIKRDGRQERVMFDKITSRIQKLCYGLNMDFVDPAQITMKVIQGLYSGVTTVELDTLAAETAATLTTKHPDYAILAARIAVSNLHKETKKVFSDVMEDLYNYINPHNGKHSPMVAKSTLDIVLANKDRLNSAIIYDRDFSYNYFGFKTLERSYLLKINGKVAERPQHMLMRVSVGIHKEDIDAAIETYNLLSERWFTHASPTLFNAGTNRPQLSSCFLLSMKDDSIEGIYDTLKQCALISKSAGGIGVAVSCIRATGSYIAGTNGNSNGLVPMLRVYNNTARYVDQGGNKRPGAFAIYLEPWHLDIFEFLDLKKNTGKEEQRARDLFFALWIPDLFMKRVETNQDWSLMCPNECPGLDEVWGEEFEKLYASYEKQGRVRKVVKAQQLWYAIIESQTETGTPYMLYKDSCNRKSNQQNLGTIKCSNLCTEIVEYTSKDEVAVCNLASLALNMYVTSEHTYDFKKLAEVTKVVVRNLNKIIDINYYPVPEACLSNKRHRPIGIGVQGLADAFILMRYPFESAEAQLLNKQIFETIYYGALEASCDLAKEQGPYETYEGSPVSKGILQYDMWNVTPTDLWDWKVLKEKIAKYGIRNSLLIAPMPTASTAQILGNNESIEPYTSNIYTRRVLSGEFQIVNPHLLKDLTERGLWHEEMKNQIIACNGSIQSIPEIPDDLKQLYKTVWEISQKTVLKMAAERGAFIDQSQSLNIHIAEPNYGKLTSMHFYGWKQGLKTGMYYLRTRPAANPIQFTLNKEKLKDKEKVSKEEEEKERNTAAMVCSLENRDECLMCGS
Description: RNR1 contains a total of sixteen (16) cysteine residues and at least five (5) of these cysteine residues are required for catalysis, including: Cys218, Cys429, Cys444, Cys787, and Cys790. It is hypothesized that the Tavocept-derived mesna adducts identified on the RNR1 protein using whole protein Mass Spectroscopy (see, FIG. 49) may alter or modulate RNR activity.

[3] = molecular target: T2, Peroxiredoxin (Prx) (Homo sapiens, UniProt Q06830); assay: Peroxiredoxin activity (summary Table 27); format: biochemical
T2 construct: purchased SigmaAldrich
T2 sequence (Q06830 whole entry): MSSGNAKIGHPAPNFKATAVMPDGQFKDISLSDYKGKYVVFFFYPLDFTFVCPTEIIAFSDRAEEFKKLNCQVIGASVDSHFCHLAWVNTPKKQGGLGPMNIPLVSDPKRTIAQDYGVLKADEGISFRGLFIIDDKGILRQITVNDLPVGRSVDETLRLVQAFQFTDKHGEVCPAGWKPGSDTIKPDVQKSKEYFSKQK

[4] = molecular target: T3, Anaplastic Lymphoma Kinase (ALK) (Homo sapiens, UniProt Q9UM73); assay: ALK kinase activity (summary Table 27); format: biochemical
T3 construct: illustrates the kinase domain of ALK (residues 1058-1623) which was used in these experiments; 6xHis (N); purchased Millipore lot 32944U-H (catalogue number not given); host or cells: baculovirus / Sf21
T3 sequence (Q9UM73 1058-1620 limits assumed): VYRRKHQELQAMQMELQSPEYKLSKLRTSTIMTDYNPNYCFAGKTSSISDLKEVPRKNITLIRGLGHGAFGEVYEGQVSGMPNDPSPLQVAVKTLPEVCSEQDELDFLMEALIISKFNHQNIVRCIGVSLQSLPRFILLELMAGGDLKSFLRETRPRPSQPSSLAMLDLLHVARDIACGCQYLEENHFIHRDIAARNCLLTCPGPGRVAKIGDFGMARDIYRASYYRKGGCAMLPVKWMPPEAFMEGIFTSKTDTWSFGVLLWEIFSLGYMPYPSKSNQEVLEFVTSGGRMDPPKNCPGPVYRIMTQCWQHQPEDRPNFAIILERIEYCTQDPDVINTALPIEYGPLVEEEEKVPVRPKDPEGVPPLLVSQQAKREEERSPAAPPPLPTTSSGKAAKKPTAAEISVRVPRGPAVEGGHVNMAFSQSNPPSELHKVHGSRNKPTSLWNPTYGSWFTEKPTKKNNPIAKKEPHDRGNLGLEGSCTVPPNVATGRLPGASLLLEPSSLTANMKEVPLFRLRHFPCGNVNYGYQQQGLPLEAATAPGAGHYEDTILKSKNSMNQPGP

[5] = molecular target: T4, recombinant human farnesyltransferase (Homo sapiens, UniProt P49354+P49356); assay: Farnesyltransferase Dansyl-GCVLS fluorescence assay; format: biochemical
T4 construct: purchased Abcam
T4 sequence (P49356 whole entry, one chain of several): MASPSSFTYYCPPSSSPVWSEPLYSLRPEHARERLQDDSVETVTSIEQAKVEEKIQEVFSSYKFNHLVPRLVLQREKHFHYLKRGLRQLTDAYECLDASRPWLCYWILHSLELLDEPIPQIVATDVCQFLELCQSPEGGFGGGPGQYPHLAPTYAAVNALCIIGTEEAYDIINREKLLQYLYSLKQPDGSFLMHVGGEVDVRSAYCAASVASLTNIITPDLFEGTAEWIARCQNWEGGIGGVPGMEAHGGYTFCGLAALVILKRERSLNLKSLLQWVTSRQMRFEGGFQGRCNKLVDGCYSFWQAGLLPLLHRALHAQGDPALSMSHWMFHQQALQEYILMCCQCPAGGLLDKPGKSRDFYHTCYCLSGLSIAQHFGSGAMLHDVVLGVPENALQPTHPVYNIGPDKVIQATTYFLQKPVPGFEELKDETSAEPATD
Procedure: Tavocept-inhibited human farnesyltransferase-mediated transfer of farnesylpyrophosphate to the cysteine residue in a danyslated peptide substrate of sequence glycine-cysteine-valine-leucine-serine (designated—Dansyl-GCVLS) in vitro. See, FIG. 79. The assay reactions contained 25 nM recombinant human farnesyltransferase (Abcam), 10 μM farnesylpyrophosphate (SigmaAldrich), 3 μM Dansyl-GCVLS (NeoBioScience) in Tris buffer (50 mM, pH 7.5) containing 5 mM MgCl2, 10 μM ZnCl2, and 0.2% octyl-β-D-glucopyranoside. Total assay volumes were 50 μL and the reactions were initiated by the addition of FTase (5 μL of 250 nM stock was added to 45 μL of assay components listed above). The excitation wavelength was 340 nm (a 340 nm filter with 25 nm bandpass) and the emission wavelength was […] (505 nm filter with 20 nm bandpass) and the assay temperature was 25° C. Progress curves of the transfer of the farnesylpyrophosphate to the Dansyl-GCVLS substrate are shown in FIG. 79, Panel A and relative rates of the progress curve were determined and are shown in FIG. 79, Panel B.

[6] = molecular target: recombinant human Prx 1 (Homo sapiens, UniProt Q06830); assay: Prx assay coupled to Trx, TrxR and NADPH; format: biochemical; details: initial velocity
recombinant human Prx 1, sequence (Q06830 whole entry): as the sequence (Q06830 whole entry) above
Procedure: Prx activity in the buffer control (Apo-Prx) and the Tavocept-treated sample (Prx-mesna) was determined using the Prx assay outlined in FIG. 58. A typical assay mixture was 150 μL in final volume and contained HEPES Buffer (45 mM, pH 7.0, 1 mM EDTA), 350 μM NADPH, 0.12 μM rat liver TrxR, 80 μM insulin, 2.9 μM human Trx 1, and Prx (4.8 or 2.4 μM per assay). Assays were initiated by the addition of H2O2 (100 μM) and were monitored at 340 nm at 25° C. for 30 minutes using a using a Molecular Devices SpectraMax Plus UV/vis plate reader. Activity was calculated using a 4 minute linear portion of each assay and then this rate was converted into percent of control with the buffer treated Prx 1 reaction (Apo-Prx) serving as a 100% control. See, FIG. 59. […] This reduction in rate is approximately 43% in assays containing 2.4 μM Prx and 23% in assays containing 4.8 μM Prx. See, FIG. 59. […] Therefore, as the concentration of unmodified Prx increases, the turnover more nearly approaches the buffer control Apo-Prx samples.

Compound: O=S(=O)([O-])CCSSCCS(=O)(=O)[O-].[Na+].[Na+] [Tavocept, disodium 2,2′-dithio-bis-ethane sulfonate]
- Mesna adduct site on Trx by X-ray ([1]; Trx pH 7.0/7.0 structure): clearly visible on Cys69 in both molecules A and B
- Mesna adduct site on Trx by X-ray ([1]; Trx pH 9.0/7.0 structure): clearly visible on both Cys69 and Cys62 in both molecules A and B
- Mesna adduct site on Trx by X-ray ([1]; Trx pH 9.0/8.5 structure): clearly visible on Cys69 in both molecules A and B
- number of Tavocept-derived mesna adducts on cysteine residues within RNR1 [2]: ≤ 8
- Cellular consequence of BNP7787-modification and/or modulation: Prx [3]: BNP7787 disrupts active site structure (Prx) resulting in impaired
- Cellular consequence of BNP7787-modification and/or modulation: ALK [4]: BNP7787 disrupts/blocks ATP binding site resulting in inhibition
- Inhibition of farnesylation [5]: inhibits farnesylation in a concentration-dependent manner
- activity of Tavocept-modified Prx versus Apo-Prx [6]: less active
